Data set [1] relates to PC-3 prostate cancer cell line. As to the kind of experiment: Cytotoxicity / growth inhibition (SRB), PC-3. The format is cell-based. The following applies: 96 hours drug exposure, read-out: IC50 ± SEM, PC-3. As for the experimental part: (§1) Cells were removed from stock flasks using trypsin, centrifuged, resuspended in fresh media, and plated at a density of approximately 2,000 cells/well in 96-well culture plates. Final drug concentrations ranged from 0.05 to either 10 or 50 μM. Control experiments with no drug added (negative control) and 5-fluorouracil added (positive control) were performed in parallel. Media was removed and replaced at 48 hours to minimize the effects of drug degradation during the course of the experiment. After 96 hours drug exposure, cells were fixed by the addition of cold 50% trichloroacetic acid (TCA) and incubation at 4° C. for 1 hour. Fixed cells were stained with sulforhodamine B (SRB), and cell number was determined by comparison of absorbance at 540 nm, as compared to a standard curve of cell number versus absorbance. Experiments were performed in duplicate.

In data set [2] the test system is LNCaP prostate cancer cell line. Nature of the data set: Cytotoxicity / growth inhibition (SRB), LNCaP. It counts as cell-based. As to conditions: 96 hours drug exposure, read-out: IC50 ± SEM, LNCaP. As for the experimental part: as §1
Data set [3] relates to DU-145 prostate cancer cell line. As to the kind of experiment: Cytotoxicity / growth inhibition (SRB), DU145. It counts as cell-based. The following applies: read-out: IC50 ± SEM, DU145. As for the experimental part: as §1
For a further data set, the target named is PSP24 PLGFR (Xenopus laevis, UniProt P79945). As to the kind of experiment: Xenopus oocyte assay: LPA-induced oscillatory chloride currents (two-electrode voltage clamp). The format is cell-based. As to conditions: for inhibition of LPA-induced chloride currents: Xenopus oocytes, extracellular application; for reversibility of inhibition of LPA-induced chloride currents: after washing the oocyte; for threshold to elicit a response alone: compound alone, agonist response. Here is the method: Xenopus oocytes which endogenously express PSP24 PLGFR were used to screen the newly designed and synthesized compounds for their LPA inhibitory activity.
(§2) Oocytes were obtained from xylazine-anesthetized adult Xenopus laevis frogs (Carolina Scientific, Burlington, N.C.) under aseptic conditions and prepared for experiment. […] Oocytes were kept in Barth's solution in an incubator between 17-20° C. and were used for 2-7 days after isolation.
Electrophysiological recordings were carried out using a standard two-electrode voltage-clamp amplifier holding the membrane potential at −60 mV (GeneClamp 500, Axon Instruments, Calif.). […] Membrane currents were recorded with a NIC-310 digital oscilloscope (Nicolet, Madison, Wis.). Applications were made at intervals of 15 mins (minimum) to allow for the appropriate washout and recovery from desensitization.
as §2
Electrophysiological recordings were carried out using a standard two-electrode voltage-clamp amplifier holding the membrane potential at −60 mV (GeneClamp 500, Axon Instruments, CA). […] Membrane currents were recorded with a NIC-310 digital oscilloscope (Nicolet, Madison, Wis.). Applications were made at intervals of 15 mins (minimum) to allow for the appropriate washout and recovery from desensitization.
(Two-electrode voltage clamp is typically applied to oocytes expressing channels or transporters.)

A further data set has as its target T1, human Edg-2 (Homo sapiens, UniProt Q92633).
T1 construct: expressed in transfected cells
As to the kind of experiment: Ca2+ responses (Fura-2) in RH7777 cells expressing Edg-2. It counts as cell-based. As for the experimental part:
(§3) RH7777 cells were transfected with the cDNA constructs encoding human Edg-2, Edg-4, or Edg-7 and then were subcloned into the pCDNA3 expression vector using the Cytofectene transfection reagent according to the manufacturers' protocol. Transfected cells were selected in DMEM containing 10% FBS and 1 mg/ml geneticin. Resistant cells were collected and subcloned by limiting dilution. The resulting clones were then screened using functional assays and RT-PCR analysis. Data are representative of three individual clones.

The target in the next data set is T2, human Edg-7 (Homo sapiens, UniProt Q9UBY5).
T2 construct: Flag; expressed in transfected cells
T2 sequence (Q9UBY5 1-353): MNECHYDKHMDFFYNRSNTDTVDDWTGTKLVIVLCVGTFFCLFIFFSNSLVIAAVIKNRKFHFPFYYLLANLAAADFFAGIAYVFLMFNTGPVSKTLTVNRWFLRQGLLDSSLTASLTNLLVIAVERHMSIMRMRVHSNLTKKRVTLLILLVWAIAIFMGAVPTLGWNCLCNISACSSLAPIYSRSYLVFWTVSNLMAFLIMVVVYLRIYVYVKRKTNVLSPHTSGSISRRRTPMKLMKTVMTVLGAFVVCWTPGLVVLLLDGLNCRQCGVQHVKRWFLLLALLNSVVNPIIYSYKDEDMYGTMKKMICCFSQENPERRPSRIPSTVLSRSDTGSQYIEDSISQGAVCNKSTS
Nature of the data set: Ca2+ responses (Fura-2) in RH7777 cells expressing Edg-7. It counts as cell-based. The following applies: for effect on LPA-elicited Ca2+ responses: 250 nM LPA 18:1 mixed with 500 nM lipid. As for the experimental part: as §3

Another data set addresses T3, human Edg-4 (Homo sapiens, UniProt Q9HBW0).
T3 construct: expressed in transfected cells
Nature of the data set: Ca2+ responses (Fura-2) in RH7777 cells expressing Edg-4 (stable or transient). The format is cell-based.
Text: RH7777 cells, stably expressing human Edg-4, were kindly provided by Dr. Kevin Lynch (University of Virginia, Charlottesville, Va.). Flag-tagged cDNA's encoding human Edg-4 and -7 inserted into the pCDNA3 expression plasmid (Invitrogen, Carlsbad, Calif.), were a generous gift from Dr. Junken Aoki (University of Tokyo, Tokyo, Japan). RH7777 and NIH3T3 cells were obtained from the American Type Culture Collection (Manassas, Va.). HEY cells were provided by Dr. Lisa Jennings (University of Tennessee, Memphis). All cell lines were maintained in Dulbecco's Modified Eagle's Medium (DMEM) containing 10% FBS and 2 mM glutamine. Oocytes were obtained from adult Xenopus laevis frogs as previously described (Tigyi et al., 1999).
as §3
RH7777 cells were plated on polylysine-coated glass coverslips (Bellco, Vineland, N.J.) one day prior to transfection. The following day, cells were transfected overnight (16-18 hr) with 1 μg of plasmid DNA mixed with 6 μl of Cytofectene. The cells were then rinsed twice with DMEM and cultured in DMEM containing 10% FBS. The next day, the cells were rinsed with DMEM and serum was withdrawn for a minimum of 2 hr prior to monitoring intracellular Ca^2+.

Setting [4] is: Homo sapiens, DU-145, 96 hours drug exposure.
[5] abbreviates: LPA 18:1 near the EC50 combined with compound 108.
Setting [6] is: 250 nM LPA 18:1 mixed with 10 μM lipid.
Setting [7] is: alone, concentrations as high as 10 μM.
[8] abbreviates: mixture of LPA 8:0 and LPA 18:1.

Structures can show the parent of a compound that is named as a salt. Where two headings read alike, the source gives them in different places.

Sequence of PSP24 PLGFR (P79945 whole entry): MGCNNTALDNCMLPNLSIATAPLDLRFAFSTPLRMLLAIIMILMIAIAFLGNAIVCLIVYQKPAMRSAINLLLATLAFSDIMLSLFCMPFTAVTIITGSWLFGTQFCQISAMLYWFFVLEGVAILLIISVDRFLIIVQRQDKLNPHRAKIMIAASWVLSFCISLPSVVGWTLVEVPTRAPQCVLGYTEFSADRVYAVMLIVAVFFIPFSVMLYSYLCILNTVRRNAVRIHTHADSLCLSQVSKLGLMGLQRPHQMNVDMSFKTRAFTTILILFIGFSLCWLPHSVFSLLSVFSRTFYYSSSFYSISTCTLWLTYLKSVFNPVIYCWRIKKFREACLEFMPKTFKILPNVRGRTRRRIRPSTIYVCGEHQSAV
T1 sequence (Q92633 whole entry): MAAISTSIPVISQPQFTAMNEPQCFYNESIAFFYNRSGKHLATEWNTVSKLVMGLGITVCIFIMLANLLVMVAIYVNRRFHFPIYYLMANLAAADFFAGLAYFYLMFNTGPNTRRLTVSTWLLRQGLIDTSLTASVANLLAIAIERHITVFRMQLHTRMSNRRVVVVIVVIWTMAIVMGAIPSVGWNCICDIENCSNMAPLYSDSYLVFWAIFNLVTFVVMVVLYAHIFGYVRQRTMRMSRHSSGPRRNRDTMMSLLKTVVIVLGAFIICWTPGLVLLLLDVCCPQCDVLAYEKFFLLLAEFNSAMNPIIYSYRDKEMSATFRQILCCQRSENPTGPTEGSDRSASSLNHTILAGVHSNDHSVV
T3 sequence (Q9HBW0 whole entry): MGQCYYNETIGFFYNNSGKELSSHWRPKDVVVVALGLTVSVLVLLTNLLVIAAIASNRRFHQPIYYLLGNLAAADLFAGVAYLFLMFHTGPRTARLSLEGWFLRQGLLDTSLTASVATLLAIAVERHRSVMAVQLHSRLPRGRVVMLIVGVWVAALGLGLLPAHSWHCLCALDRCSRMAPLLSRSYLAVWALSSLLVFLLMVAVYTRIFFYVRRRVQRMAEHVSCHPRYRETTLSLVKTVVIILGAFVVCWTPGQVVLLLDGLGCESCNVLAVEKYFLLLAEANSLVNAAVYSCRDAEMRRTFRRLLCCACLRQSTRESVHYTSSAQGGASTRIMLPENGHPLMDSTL

Broadly, the melting point is the temperature, or range, at which the solid turns liquid. `CCCCCCCCCCCCCCCCCCNC(=O)C(N)CO.O=C(O)C(F)(F)F` (stereo not shown) came in with a melting point of 170 to 172 °C.

As a reminder, the IC50 is the concentration that inhibits the measured activity by half. Take `CCCCCCCCCCCCCCNC(=O)C(CO)NC(=O)OC(C)(C)C` (stereo not shown) [Compound 27, tert-Butyl N-[1-(hydroxymethyl)-2-oxo-2-(tetradecylamino)ethyl]carbamate]: the melting point fell in the range of 59 to 62 °C. Also, the IC50 in data set [1] was above 50 µM. The IC50 in data set [2] (Homo sapiens, LNCaP) was found to be 10.9 ± 2.7 µM. Moreover, the IC50 in data set [3] (setting [4]) was found to be 19.7 ± 6 µM.

For `CCCCCCCCCCCCCCNC(=O)C(N)CO.O=C(O)C(F)(F)F` (stereo not shown) [Compound 36, N-1-tetradecyl-2-amino-3-hydroxypropanamide trifluoroacetate], the melting point was 168 to 171 °C. Also, the “inhibition of LPA-induced chloride currents” value on PSP24 PLGFR is “best inhibitor among the non-phosphorylated derivatives”.

On to `CCCCCCCCCCCCCCOc1ccc(NC(=O)C(N)CO)cc1` (stereo not shown) [Compound 38, N-1-[4-(tetradecyloxy)phenyl]-2-amino-3-hydroxypropanamide trifluoroacetate], for which, in data set [3] (96 hours drug exposure), the IC50 is 38.9 ± 8.9 µM.

The compound `CCCCCCCCCCCCCCNC(=O)C(COP(=O)(OCc1ccccc1)OCc1ccccc1)NC(=O)OC(C)(C)C` (stereo not shown) [Compound 51, tert-Butyl N-[1-{([di(benzyloxy)phosphoryl]oxy)methyl}-2-oxo-2-(tetradecylamino)ethyl]carbamate] returned a melting point of 33 to 35 °C. Moreover, the IC50 in data set [1] amounted to 25.4 ± 3.6 µM. In addition, the IC50 in data set [2] (Homo sapiens, LNCaP) was determined as 19.9 ± 6.4 µM. For the same compound, the IC50 in data set [3] (setting [4]) turned out to be 8.1 ± 1.3 µM.

For `CCCCCCCCCCCCCCNC(=O)C(N)COP(=O)(O)O` (stereo not shown) [Compound 56, 2-Amino-3-oxo-3-(tetradecylamino)propyl dihydrogen phosphate], at PSP24 PLGFR, the “inhibition of LPA-induced chloride currents” value is given as “inhibitors of LPA-induced chloride current” and the “reversibility of inhibition of LPA-induced chloride currents” value was “reversible”.

With `CCCCCCCCCCCCCCCCCCNC(=O)C(N)COP(=O)(O)O` (stereo not shown) [Compound 57, 2-Amino-3-(octadecylamino)-3-oxopropyl dihydrogen phosphate], on PSP24 PLGFR, the “inhibition of LPA-induced chloride currents” value is “inhibitors of LPA-induced chloride current” and the “reversibility of inhibition of LPA-induced chloride currents” value is “reversible”.

Take `CCCCCCCCCCCCOCC(COP(=O)(O)O)OP(=O)(O)O` (stereo not shown) [Compound 67, 1,2-(3-Dodecyloxypropane)-bis(dihydrogen phosphate)]: the IC50 in data set [2] was determined as 25.2 ± 12.3 µM. The “threshold to elicit a response alone” value on PSP24 PLGFR was around 1000 nM.

Consider `CCCCCCCCCCCCCCCCOCC(COP(=O)(O)O)OP(=O)(O)O` (stereo not shown) [Compound 68, 1,2-(3-Hexadecyloxypropane)-bis(dihydrogen phosphate)], for which, in data set [2], the IC50 came out at 29.3 ± 21.7 µM. Moreover, the “threshold to elicit a response alone” value at PSP24 PLGFR was around 10 nM.

As to `CCCCCCCCCCCCCC(=O)OCC(COP(=O)(O)O)OP(=O)(O)O` (stereo not shown) [Compound 85, 1,2-(3-Tetradecanoyloxypropane)-bis(dihydrogen phosphate)], the IC50 in data set [2] is 11.6 ± 10.3 µM. In addition, on PSP24 PLGFR, the “threshold to elicit a response alone” value is around 100 nM.

Turning to `CCCCCCCCCCCCCCCCCC(=O)OCC(COP(=O)(O)O)OP(=O)(O)O` (stereo not shown) [Compound 89, 1,2-(3-Octadecanoyloxypropane)-bis(dihydrogen phosphate)], at PSP24 PLGFR (against 2 nM LPA, compound concentration not given), the “inhibition of LPA-induced response” value is recorded as 59%.

Turning to `CCCCCCCCCCCCCCCCCCC(=O)OCC(COP(=O)(O)O)OP(=O)(O)O` (stereo not shown) [Compound 90, 1,2-(3-Nonadecanoyloxypropane)-bis(dihydrogen phosphate)], in data set [3] (96 hours drug exposure), the IC50 is above 50 µM.

As to `CCCCCCCCCCCCCCCCCCCC(=O)OCC(COP(=O)(O)O)OP(=O)(O)O` (stereo not shown) [Compound 91, 1,2-(3-Icosanoyloxypropane)-bis(dihydrogen phosphate)], the IC50 in data set [3] (96 hours drug exposure) turned out to be 42.2 ± 1.9 µM.

Consider `CCCCCCCCCCCCCCCCCCCCCC(=O)OCC(COP(=O)(O)O)OP(=O)(O)O` (stereo not shown) [Compound 92, 1,2-(3-Docosanoyloxypropane)-bis(dihydrogen phosphate)], for which, on PSP24 PLGFR, the “inhibition of LPA-induced chloride currents” value was “inhibitors of LPA-induced chloride current” and the “reversibility of inhibition of LPA-induced chloride currents” value is on record as “reversible”.

For `CCCCCCCCCCCCOP(=O)(O)O` [Compound 108, Phosphoric Acid Monododecyl Ester], the “Ca2+ responses, % of control” value on human Edg-2 (setting [5]) is recorded as “about 63 % of control”; at human Edg-7 (setting [5]), ~56 % of control; on human Edg-4 (setting [5]), “about 148 % of control”.

Regarding `O=c1[nH]cc(F)c(=O)[nH]1` [Fluorouracil, 5-fluorouracil], the IC50 in data set [1] is 10.2 ± 4.1 µM; in data set [2] (Homo sapiens, LNCaP), 2.8 ± 1.6 µM; in data set [3] (setting [4]) it was 6.8 ± 3.3 µM.

Regarding `CCCCCCCCCCCCC/C=C/[C@@H](O)[C@@H](N)COP(=O)(O)O` [SPP (13:0), sphingosine-1-phosphate], the IC50 in data set [1] is above 50 µM; in data set [3] (setting [4]) it was above 10 µM.

Consider diacyl glycerol [DAG 8:0], for which the “Ca2+ response, % of control” value on human Edg-2 (setting [6]) is 64 % of control. For the same compound, the “effect on LPA-elicited Ca2+ responses” value at human Edg-7 is reported as “significantly increased the Ca^2+ responses”.

diacyl glycerol [DAG 18:1]: the “inhibitory effect on LPA-elicited Ca2+ response” value against human Edg-2 (setting [6]) is “no longer had an inhibitory effect”. At human Edg-7, the “effect on LPA-elicited Ca2+ responses” value is on record as “did not have an inhibitory effect”.

With lysophosphatidic acid [LPA 8:0], the “Ca2+ response elicited alone” value at human Edg-2 (setting [7]), at human Edg-7 (setting [7]) and on human Edg-4 (setting [7]) was “unable to elicit Ca^2+ responses” in each case. The “effect of mixture with LPA 18:1 on Ca2+ responses” value is listed as “not effected” on human Edg-2 (setting [8]); “not effected” on human Edg-7 (setting [8]); “not effected” on human Edg-4 (mixture of LPA 8:0 and LPA 18:1, stable cells). Besides, the “effect on LPA-elicited Ca2+ responses” value on human Edg-7 is reported as “had no effect”.

In general, EC50 refers to the concentration that produces a half-maximal response. In the case of lysophosphatidic acid [LPA (18:1)], in data set [1], the IC50 is 28.5 ± 6.3 µM. For the same compound, the EC50 on human Edg-2 (stable Edg-2 expressing cells, read-out: EC50, Ca2+ transients) turned out to be 0.378 ± 0.053 µM; on PSP24 PLGFR (LPA alone, FIG. 37, read-out: EC50 of LPA alone (positive control solution)), 0.025 µM.

Values taken from patent US6875757B2, “LPA receptor agonists and antagonists and methods of use” (University of Tennessee Research Foundation, priority 2000, dated 2005).
